In the supplement of paper PMC10307832:

How the values were obtained:
Assay in all cases: relative viability (nuclei count vs DMSO), 5 days (fraction); higher = more cells survive
IDH-C35 + Palbociclib = compound: Cc1ccccc1C(C(=O)NC1CCCCC1)N(C(=O)Cn1ccnc1C)c1cccc(F)c1 [IDH-C35] + CC(=O)c1c(C)c2cnc(Nc3ccc(N4CCNCC4)cn3)nc2n(C2CCCC2)c1=O [Palbociclib] (partner 0.5 µM)
Outline: (§1)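 Relative viability is defined as nuclei in treated wells over nuclei in vehicle wells. Duplicate plates were run and medians reported. Lung cancer cell lines in 1536-well plates were dosed by pin tool one day after seeding, with one drug or with a fixed anchor-drug dose plus five library-drug doses (not always all listed) in √10 steps, and nuclei were counted after 5 days.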

[1] = compound: CC1=C(C(=NN1)C)CC2=C(C3=C(S2)N(C(=O)N(C3=O)C)CC(C)C)C(=O)N4C[C@@H](CO4)O + CC(=O)c1c(C)c2cnc(Nc3ccc(N4CCNCC4)cn3)nc2n(C2CCCC2)c1=O [Palbociclib] (partner 0.5 µM)
Outline: as §1

[2] = compound: CC1=C(C(=NN1)C)CC2=C(C3=C(S2)N(C(=O)N(C3=O)C)CC(C)C)C(=O)N4C[C@@H](CO4)O + CCNC(=O)c1noc(-c2cc(C(C)C)c(O)cc2O)c1-c1ccc(CN2CCOCC2)cc1 [Luminespib] (partner 0.01 µM)
Outline: as §1

[3] = compound: CC1=C(C(=NN1)C)CC2=C(C3=C(S2)N(C(=O)N(C3=O)C)CC(C)C)C(=O)N4C[C@@H](CO4)O + NC(=O)Nc1cc(-c2cccc(F)c2)sc1C(=O)N[C@H]1CCCNC1 [AZD7762] (partner 0.2 µM)
Outline: as §1

Row | Cell Line | relative viability (IDH-C35 + Palbociclib; first compound 0.08 µM) | relative viability (IDH-C35 + Palbociclib; first compound 0.253 µM) | relative viability (IDH-C35 + Palbociclib; first compound 0.8 µM) | relative viability (IDH-C35 + Palbociclib; first compound 2.53 µM) | relative viability (IDH-C35 + Palbociclib; first compound 8 µM) | relative viability ([1]; first compound 0.0025 µM) | relative viability ([1]; first compound 0.007906 µM) | relative viability ([1]; first compound 0.025 µM) | relative viability ([1]; first compound 0.07906 µM) | relative viability ([1]; first compound 0.25 µM) | relative viability ([2]; first compound 0.0025 µM) | relative viability ([2]; first compound 0.007906 µM) | relative viability ([2]; first compound 0.025 µM) | relative viability ([2]; first compound 0.07906 µM) | relative viability ([2]; first compound 0.25 µM) | relative viability ([3]; first compound 0.0025 µM) | relative viability ([3]; first compound 0.007906 µM) | relative viability ([3]; first compound 0.025 µM) | relative viability ([3]; first compound 0.07906 µM) | relative viability ([3]; first compound 0.25 µM)
1 | NCI-H2347 | 0.432 | 0.469 | 0.42 | 0.475 | 0.448 | 0.426 | 0.4 | 0.431 | 0.36 | 0.445 | 0.563 | 0.371 | 0.447 | 0.362 | 0.246 | 0.739 | 0.697 | 0.734 | 0.718 | 0.667
2 | PC-14 | 0.515 | 0.511 | 0.484 | 0.573 | 0.441 | 0.453 | 0.45 | 0.493 | 0.468 | 0.646 | 0.119 | 0.179 | 0.286 | 0.276 | 0.196 | 0.33 | 0.371 | 0.332 | 0.374 | 0.306
3 | NCI-H1651 | 0.499 | 0.505 | 0.523 | 0.527 | 0.545 | 0.54 | 0.562 | 0.493 | 0.532 | 0.508 | 0.843 | 0.762 | 0.969 | 0.855 | 1.09 | 0.414 | 0.478 | 0.391 | 0.337 | 0.416
4 | HARA | 0.222 | 0.298 | 0.268 | 0.311 | 0.234 | 0.308 | 0.199 | 0.28 | 0.247 | 0.264 | 0.847 | 1.12 | 0.726 | 0.543 | 0.933 | 0.281 | 0.288 | 0.324 | 0.297 | 0.218
5 | NCI-H1395 | 0.626 | 0.605 | 0.612 | 0.601 | 0.598 | 0.682 | 0.614 | 0.595 | 0.606 | 0.663 | 0.768 | 0.785 | 0.607 | 0.461 | 0.631 | 0.416 | 0.4 | 0.4 | 0.356 | 0.389
6 | LU99A | 0.38 | 0.418 | 0.394 | 0.398 | 0.403 | 0.476 | 0.493 | 0.41 | 0.436 | 0.391 | 0.337 | 0.297 | 0.203 | 0.224 | 0.237 | 0.333 | 0.379 | 0.326 | 0.311 | 0.337
7 | NCI-H1355 | 0.438 | 0.4 | 0.393 | 0.427 | 0.388 | 0.413 | 0.459 | 0.408 | 0.401 | 0.414 | 0.836 | 0.617 | 0.684 | 0.778 | 0.724 | 0.688 | 0.842 | 0.713 | 0.65 | 0.816
8 | HCC-15 | 0.791 | 0.695 | 0.748 | – | 0.67 | 0.788 | 0.77 | 0.726 | 0.727 | 0.788 | 0.378 | 0.518 | 0.236 | 0.43 | 0.337 | 1.34 | 1.37 | 1.13 | 1.17 | 1.29
